Earlier results as cited in patent US4344438A, “Optical sensor of plasma constituents” (The United States of America as represented by the …, priority 1980, dated 1982).

target: Concanavalin-A (Con-A); conditions: from So and Goldstein, Biochem., Biophys. Acta 165, 398 (1968); read-out: Binding constant K of sugar to Concanavalin-A

Structure (SMILES)	Kd [µM]
OC[C@H]1O[C@H](O[C@H]2[C@H](O)[C@@H](O)C(O)O[C@@H]2CO)[C@H](O)[C@@H](O)[C@@H]1O (mixture of isomers) [Maltose]	350
O=C(CO)[C@@H](O)[C@H](O)[C@H](O)CO [Fructose]	730
OC[C@H]1O[C@H](OC[C@H]2OC(O)[C@H](O)[C@@H](O)[C@@H]2O)[C@H](O)[C@@H](O)[C@@H]1O (some centres unmarked) [Isomaltose]	180
OC[C@H]1O[C@@](CO)(O[C@H]2O[C@H](CO)[C@@H](O)[C@H](O)[C@H]2O)[C@@H](O)[C@@H]1O [Sucrose]	1900
O=[N+]([O-])c1ccc(O[C@H]2O[C@H](CO)[C@@H](O)[C@H](O)[C@@H]2O)cc1 [p-nitrophenol-α-D mannopyranoside]	29.4
